Laboratory results reported in patent publication US11883503B2, “Methods and compositions for cancer treatment” (DINGFU BIOTARGET CO., LTD., priority 2017, dated 2024).

System: peripheral blood lymphocytes
Assay: Flow cytometry of CD4+ and CD8+ lymphocytes in peripheral blood after FTY720
Format: in vivo, mice
Details: 3 days after first administration of FTY720
Description: FTY720 (SIGMA, Cat #SML0700-5MG) was used to test activation of T cells in the tumor microenvironment. FTY720 is a lipophilic immunomodulatory sphingosine-1-phosphate analog, it induces severe peripheral blood lymphopenia and sustains lymphopenia in mice by preventing lymphocytes to egress from lymph organs through agonist-induced receptor internalization.
B16-EGFR-SIY cells were inoculated s.c. into the both flanks of mice. […] Then 3 days later, after the first administration of depletion antibodies or FTY720, lymphocytes suspensions were prepared from their peripheral blood, and labeled with APC-anti-mCD4 (clone GK1.5, BioLegend), FITC-anti-mCD8a (clone 53-6.7, BioLegend), FITC-anti-mCD3 (clone 17A2, BioLegend), or APC-anti-mNK1.1 (clone PK136, BioLegend). Tumor volumes on the both flanks were measured and monitored. Samples were analyzed on a Life Attune Flow Cytometer (Life), and data were analyzed. Representative data is shown in FIG. 6C-6F, based on results obtained from three experiments conducted with 5-6 mice per group.

CCCCCCCCc1ccc(CCC(N)(CO)CO)cc1 [FTY720]
relative number of CD4+ T cells in peripheral blood: ~1.5% | relative number of CD8+ T cells in peripheral blood: about 0.5%
